From patent publication US20210386753A1, “METHODS OF ADMINISTERING INTRAVENOUS MELOXICAM PRE-OPERATIVELY AND IN COMBINATION WITH OTHER DRUGS” (BAUDAX BIO, INC., priority 2018, published 2021)
Like-named read-outs stand apart in the source and are kept apart here.

Tests used:
patients [1] = settings: intravenous; Prescribing Information; cited from earlier work
Plasma Tmax of meloxicam = assay type: in vivo; settings: human, 30 mg, methods as disclosed herein (IV bolus)
patients [2] = assay: Onset, peak and duration of analgesic effect; assay type: in vivo, human; settings: meloxicam administration as disclosed herein (IV)
[3] = following oral administration, cited from earlier work

SMILES | time for the onset of pain relief (patients [1]) | Tmax (Plasma Tmax of meloxicam) [min] | therapeutic window (patients [2]) | time of maximum observed plasma concentration (tmax) [3] [h] | time of maximum observed plasma concentration (tmax) ([3]; listed as oral meloxicam) [h]
O=C(c1ccccc1)c1ccc2n1CCC2C(=O)O (centres unmarked) [ketorolac] | up to 30 minutes | – | – | – | –
Cc1cnc(NC(=O)C2=C(O)c3ccccc3S(=O)(=O)N2C)s1 [meloxicam, 4-hydroxy-2-methyl-N-(5-methyl-2-thiazolyl)-2H-1,2-benzothiazine-3-carboxamide-1,1-dioxide] | – | 4.8 to 9.6 | at least 24 hours | 5 to 7 | 5 to 6
